A value given as a limit tells only on which side of the number the result lay.

This experiment addresses T1, Tyrosine-protein phosphatase non-receptor type 22 (Homo sapiens, UniProt Q9Y2R2).
T1 sequence (Q9Y2R2 whole entry): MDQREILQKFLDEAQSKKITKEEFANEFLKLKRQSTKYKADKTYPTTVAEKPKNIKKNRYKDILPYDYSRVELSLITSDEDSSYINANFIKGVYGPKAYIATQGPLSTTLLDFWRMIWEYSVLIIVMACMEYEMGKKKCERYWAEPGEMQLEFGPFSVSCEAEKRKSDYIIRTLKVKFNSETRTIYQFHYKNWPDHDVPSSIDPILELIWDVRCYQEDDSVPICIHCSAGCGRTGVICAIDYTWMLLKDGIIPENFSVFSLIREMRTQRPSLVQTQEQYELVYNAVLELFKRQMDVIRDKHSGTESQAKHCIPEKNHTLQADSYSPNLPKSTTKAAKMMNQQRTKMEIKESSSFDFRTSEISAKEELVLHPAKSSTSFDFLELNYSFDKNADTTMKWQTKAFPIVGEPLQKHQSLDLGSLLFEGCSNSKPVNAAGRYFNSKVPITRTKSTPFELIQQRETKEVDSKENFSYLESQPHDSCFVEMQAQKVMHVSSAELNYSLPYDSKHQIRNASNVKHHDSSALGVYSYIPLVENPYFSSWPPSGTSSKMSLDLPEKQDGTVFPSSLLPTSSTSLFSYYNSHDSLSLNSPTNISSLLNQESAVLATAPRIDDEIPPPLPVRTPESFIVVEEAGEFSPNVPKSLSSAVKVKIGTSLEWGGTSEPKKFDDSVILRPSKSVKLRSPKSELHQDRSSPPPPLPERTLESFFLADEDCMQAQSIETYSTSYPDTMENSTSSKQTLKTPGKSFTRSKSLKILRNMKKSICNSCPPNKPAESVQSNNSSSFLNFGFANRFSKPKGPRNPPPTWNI
Briefly: LYP (PTPN22) phosphatase inhibitor potency, SAR follow-up, biochemical, pCAP fluorogenic substrate, fluorescence, set 3 (AID 449727).

The compound `CCOc1ccc2nc(NC(=O)CSc3cc(O)c4c(C)c(C)sc4n3)sc2c1` [2-[(2,3-dimethyl-4-oxidanylidene-5H-thieno[2,3-b]pyridin-6-yl)sulfanyl]-N-(6-ethoxy-1,3-benzothiazol-2-yl)ethanamide] yielded an IC50 greater than 100 µM.

The values above are taken from BindingDB's records for doi:10.7270/Q2M9073J (Burnham Center For Chemical Genomics, 2010).
